# Laboratory results taken from patent US20250268884A1, “Deuterated Domperidone for Treating Gastroparesis” (CinDome Pharma, Inc., priority 2022, published 2025).
# System: adults with idiopathic or diabetic gastroparesis
# Test: PAGI-SYM questionnaire total and subscale scores, Phase 2a
# Format: in vivo, human
# Procedure: Subjects were Evaluated as Follows: • Days −28 to −11: Screening procedures were performed. The ANMS GCSI-DD questionnaire was completed daily for at least 14 days prior to randomization (Day 1); • Days −10 to −3: The ANMS GCSI-DD questionnaire was completed daily. A GEBT was performed on a single day within this window, with breath samples obtained twice prior to consumption of a standardized, carbon-13 (^13C)-enriched meal and then at 45, 90, 120, 150, 180, and 240 minutes after meal consumption after an 8-hour fast. […] On Day 14 (±2 days), the PAGI-SYM and Clinical Grading Assessment questionnaires were completed prior to the final dose of study drug. • A GEBT was administered 30 minutes after study drug administration on Day 14 (±2 days). Breath samples were obtained twice prior to ^13C-enriched meal consumption and then at 45, 90, 120, 150, 180, and 240 minutes after meal consumption after an 8-hour fast. If a subject withdrew from the study prior to the Day 14 (±2 days) GEBT, attempts should have been made to perform a GEBT on the last day of study drug administration. Clinical Grading Assessment Scales were also performed.
# The PAGI-SYM includes 6 subscales: heartburn/regurgitation, fullness/early satiety, nausea/vomiting, bloating, upper abdominal pain, and lower abdominal pain.
# [1] = 10 mg BID, mean, Safety Population
# [2] = 20 mg QD, mean, Safety Population
smiles,measurement,setting,value
"[2H]c1c([2H])c([2H])c2c([nH]c(=O)n2CCCN2CCC(n3c(=O)[nH]c4cc(Cl)ccc43)CC2)c1[2H] [Deudomperidone, 1-{3-[4-(5-chloro-2-oxo-2,3-dihydro-1H-1,3-benzodiazol-1-yl)piperidin-1yl]propyl}-2,3-dihydro(4,5,6,7-D4)-1H-1,3-benzodiazol-2-one]","PAGI-SYM bloating subscale score, Change from baseline to Day 14",[1],−1.17
same,"PAGI-SYM bloating subscale score, Day 14",[1],2.65
same,"PAGI-SYM bloating subscale score, Percent change from baseline to Day 14",[1],−26.78%
same,"PAGI-SYM fullness/early satiety subscale score, Baseline",[1],3.60
same,"PAGI-SYM fullness/early satiety subscale score, Change from baseline to Day 14",[1],−0.88
same,"PAGI-SYM fullness/early satiety subscale score, Day 14",[1],2.71
same,"PAGI-SYM fullness/early satiety subscale score, Percent change from baseline to Day 14",[1],−24.08%
same,"PAGI-SYM heartburn/regurgitation subscale score, Baseline",[1],2.67
same,"PAGI-SYM heartburn/regurgitation subscale score, Change from baseline to Day 14",[1],−1.07
same,"PAGI-SYM heartburn/regurgitation subscale score, Day 14",[1],1.62
same,"PAGI-SYM heartburn/regurgitation subscale score, Percent change from baseline to Day 14",[1],−25.45%
same,"PAGI-SYM lower abdominal pain subscale score, Baseline",[1],2.02
same,"PAGI-SYM lower abdominal pain subscale score, Change from baseline to Day 14",[1],−0.79
same,"PAGI-SYM lower abdominal pain subscale score, Day 14",[1],1.25
same,"PAGI-SYM lower abdominal pain subscale score, Percent change from baseline to Day 14",[1],−38.38%
same,"PAGI-SYM nausea/vomiting subscale score, Baseline",[1],2.75
same,"PAGI-SYM nausea/vomiting subscale score, Change from baseline to Day 14",[1],−0.93
same,"PAGI-SYM nausea/vomiting subscale score, Day 14",[1],1.78
same,"PAGI-SYM nausea/vomiting subscale score, Percent change from baseline to Day 14",[1],−30.39%
same,"PAGI-SYM total score, Baseline",[1],2.94
same,"PAGI-SYM total score, Change from baseline to Day 14",[1],−0.97
same,"PAGI-SYM total score, Day 14",[1],1.97
same,"PAGI-SYM total score, Percent change from baseline to Day 14",[1],−31.18%
same,"PAGI-SYM upper abdominal pain subscale score, Baseline",[1],2.74
same,"PAGI-SYM upper abdominal pain subscale score, Change from baseline to Day 14",[1],−0.97
same,"PAGI-SYM upper abdominal pain subscale score, Day 14",[1],1.82
same,"PAGI-SYM upper abdominal pain subscale score, Percent change from baseline to Day 14",[1],−24.47%
same,"PAGI-SYM bloating subscale score, Baseline",[2],3.57
same,"PAGI-SYM bloating subscale score, Change from baseline to Day 14",[2],−1.10
same,"PAGI-SYM bloating subscale score, Day 14",[2],2.47
same,"PAGI-SYM bloating subscale score, Percent change from baseline to Day 14",[2],−36.38%
same,"PAGI-SYM fullness/early satiety subscale score, Baseline",[2],3.42
same,"PAGI-SYM fullness/early satiety subscale score, Change from baseline to Day 14",[2],−1.10
same,"PAGI-SYM fullness/early satiety subscale score, Day 14",[2],2.32
same,"PAGI-SYM fullness/early satiety subscale score, Percent change from baseline to Day 14",[2],−31.45%
same,"PAGI-SYM heartburn/regurgitation subscale score, Baseline",[2],2.68
same,"PAGI-SYM heartburn/regurgitation subscale score, Change from baseline to Day 14",[2],−1.06
same,"PAGI-SYM heartburn/regurgitation subscale score, Day 14",[2],1.62
same,"PAGI-SYM heartburn/regurgitation subscale score, Percent change from baseline to Day 14",[2],−34.56%
same,"PAGI-SYM lower abdominal pain subscale score, Baseline",[2],1.93
same,"PAGI-SYM lower abdominal pain subscale score, Change from baseline to Day 14",[2],−0.40
same,"PAGI-SYM lower abdominal pain subscale score, Day 14",[2],1.53
same,"PAGI-SYM lower abdominal pain subscale score, Percent change from baseline to Day 14",[2],−10.91%
same,"PAGI-SYM nausea/vomiting subscale score, Baseline",[2],2.49
same,"PAGI-SYM nausea/vomiting subscale score, Change from baseline to Day 14",[2],−1.20
same,"PAGI-SYM nausea/vomiting subscale score, Day 14",[2],1.29
same,"PAGI-SYM nausea/vomiting subscale score, Percent change from baseline to Day 14",[2],−50.18%
same,"PAGI-SYM total score, Baseline",[2],2.72
same,"PAGI-SYM total score, Change from baseline to Day 14",[2],−0.93
same,"PAGI-SYM total score, Day 14",[2],1.80
same,"PAGI-SYM total score, Percent change from baseline to Day 14",[2],−39.03%
same,"PAGI-SYM upper abdominal pain subscale score, Baseline",[2],2.27
same,"PAGI-SYM upper abdominal pain subscale score, Change from baseline to Day 14",[2],−0.70
same,"PAGI-SYM upper abdominal pain subscale score, Day 14",[2],1.57
same,"PAGI-SYM upper abdominal pain subscale score, Percent change from baseline to Day 14",[2],−32.81%
same,PAGI-SYM total and subscale scores at Day 14,"all deudomperidone treatment groups, placebo also decreased",decreased from baseline
